Patent US6214992A (Hoechst Aktiengesellschaft, priority 1996, dated 2001)

System: Mongolian gerbils
Experiment: not given
Conditions: gerbil, comparable experimental conditions; J. Cereb. Blood Flow Metab. 1987, 7/1: 74-81; cited from earlier work

SMILES	inhibition of ischemic nerve cell damage
Cn1c(=O)c2[nH]cnc2n(C)c1=O [theophylline, 1,3-dimethylxanthine]	inhibits ischemic nerve cell damage neither

System: rat
Experiment: not given
Conditions: comparable experimental conditions, J. Cereb. Blood Flow Metab. 1994, 14/1: 166-173; cited from earlier work

SMILES	inhibition of ischemic nerve cell damage
Cn1c(=O)c2[nH]cnc2n(C)c1=O [theophylline, 1,3-dimethylxanthine]	inhibits ischemic nerve cell damage neither

System: Mongolian gerbils
Experiment: transient global ischemia, CA1 hippocampus nerve cell damage
Type: in vivo, Mongolian gerbil
Conditions: Meriones unguiculatus, ip, 168 h; Dose 5 mg/kg intraperitoneally 30 minutes after 3-minute ischemia; histopathological score after 7 days versus untreated control; read-out: Inhibition of the neuronal CA1 hippocampus damage
Protocol: To carry out the experiment, which took place according to the guidelines of the German Animal Protection Act, 30 male Mongolian gerbils having a body weight of between 60 and 70 g were randomly divided into two groups each containing 15 animals. The respective test substance was administered to the animals of the first group 30 minutes after the ischemia period by intraperitoneal injection, while the animals of the second group, which served as an untreated control group, only received the same volume of the vehicle concerned. To produce the temporary forebrain ischemia, the animals were fixed in the supine position to a heated operated table, and both common carotid arteries were carefully exposed and closed for 3 minutes by means of microaneurysm clips. 7 days after the 3-minute ischemia period, the animals were decapitated under halothane anesthesia, the brains were rapidly and carefully removed, first fixed by immersion in Carnoy's solution (ethanol/chloroform/acetic acid=6/3/1) and then embedded in paraffin. Subsequently 4 to 6 μm thick coronal sections through the hippocampus were prepared approximately at the height of the bregma and these were stained with hematoxylin and eosin. After this, the extent of eosinophilic necrosis of the pyramidal cells in the CA1 region of the hippocampus was determined by light microscopy in the course of a blind experiment by means of a semiquantitative histopathological score (0=none; 1=slight; 2=medium severe; 3=severe and 4=complete necroses). The assessment variable used for the neuroprotective action was the percentage change in the mean histopathological score of the preparation group compared to that of the untreated control group.

SMILES	inhibition in vivo at 5 mg/kg
CCCOCn1c(=O)c2[nH]cnc2n(CC)c1=O [Compound 27, 3-Ethyl-1-propoxymethylxanthine]	40%

Same assay, conditions: Meriones unguiculatus, ip, 168 h; Dose 10 mg/kg intraperitoneally 30 minutes after 3-minute ischemia; histopathological score after 7 days versus untreated control; read-out: Inhibition of the neuronal CA1 hippocampus damage

SMILES	inhibition in vivo at 10 mg/kg
CCCOCCn1c(=O)c2[nH]cnc2n(CC)c1=O [Compound 36]	23%
CCOCn1c(=O)c2[nH]cnc2n(CC)c1=O [Compound 17]	66%
CCn1c(=O)n(COc2ccccc2)c(=O)c2[nH]cnc21 [Compound 58]	20%
CCCCn1c(=O)n(CCOCC)c(=O)c2[nH]cnc21 [Compound 24]	30%
CCn1c(=O)n(CCOC)c(=O)c2[nH]cnc21 [Compound 7]	33%
CCn1c(=O)n(COCCOC)c(=O)c2[nH]cnc21 [Compound 54]	36%
CCCOCn1c(=O)c2c(ncn2Cc2ccccc2)n(C2CC2)c1=O [Compound 103]	32%
CCCOCn1c(=O)c2[nH]cnc2n(CC)c1=O [Compound 27, 3-Ethyl-1-propoxymethylxanthine]	67%
CCCOCn1c(=O)c2[nH]cnc2n(CCC)c1=O [Compound 28]	30%
CCOCCn1c(=O)c2[nH]cnc2n(C2CC2)c1=O [Compound 25]	24%
CCCCn1c(=O)n(CCOc2ccccc2)c(=O)c2[nH]cnc21 [Compound 63]	27%
CCn1c(=O)n(COc2ccc(Cl)cc2)c(=O)c2[nH]cnc21 [Compound 66]	23%
CCCCOCCn1c(=O)c2[nH]cnc2n(CC)c1=O [Compound 44]	64%
COCCn1c(=O)c2[nH]cnc2n(C)c1=O [Compound 6]	20%
CCn1c(=O)n(CCOc2ccccc2)c(=O)c2[nH]cnc21 [Compound 61]	23%
CCCCOCCn1c(=O)c2c(ncn2Cc2ccccc2)n(CC)c1=O [Compound 114]	27%
CCn1c(=O)n(CCCOC)c(=O)c2c1ncn2Cc1ccccc1 [Compound 82]	30%
CCCCn1c(=O)n(COCCC)c(=O)c2[nH]cnc21 [Compound 30]	24%
COCn1c(=O)c2[nH]cnc2n(C2CC2)c1=O [Compound 5]	20%
CCn1c(=O)n(CCOC)c(=O)c2c1ncn2Cc1ccccc1 [Compound 77]	33%
CCCOCCn1c(=O)c2[nH]cnc2n(C2CC2)c1=O [Compound 39]	36%

System: C57BL/6 mice
Experiment: endotoxin (LPS)-induced lethal shock, decrease in mortality
Type: in vivo
Conditions: Mus musculus, ip, 48 h, read-out: Inhibition of mortality
Protocol: For the testing of preparations for antishock action, various experimental animal models have been developed.
To carry out the experiments, a mixture of 10 ng of LPS from Salmonella abortus equi. and 7.5 mg of galactosamine in 0.2 ml of phosphate-buffered,physiological saline solution was administered to each animal by intravenous injection, which as a rule led to death within 6 to 9 hours. The test preparations were administered intraperitoneally one hour before LPS provocation at a dose of 100 mg/kg. The animals of the control group (n=10) instead of this received pure 0.9% saline solution as placebo. To assess the action of the preparation, the number of surviving animals was determined in the treated group (n=10) 48 hours after LPS administration and from this the percentage inhibition of mortality was determined with respect to the mortality in the control group.

SMILES	inhibition in vivo at 100 mg/kg
CCCn1c(=O)n(CCOCC)c(=O)c2[nH]cnc21 [Compound 23]	40%
CCCn1c(=O)n(CCOC)c(=O)c2[nH]cnc21 [Compound 8]	30%

Same assay, conditions: Mus musculus, ip; 100 mg/kg intraperitoneally one hour before LPS/galactosamine; survivors 48 hours after LPS; versus placebo control; read-out: Inhibition of mortality

SMILES	inhibition in vivo at 100 mg/kg
CC(C)COCn1c(=O)c2[nH]cnc2n(C2CC2)c1=O [Compound 50]	40%
CCn1c(=O)n(COC)c(=O)c2[nH]cnc21 [Compound 2]	30%
CCOCn1c(=O)c2[nH]cnc2n(C)c1=O [Compound 16]	100%
CCOCn1c(=O)c2[nH]cnc2n(CC)c1=O [Compound 17]	100%
CCCOCCn1c(=O)c2[nH]cnc2n(C)c1=O [Compound 35]	30%
CCCOCn1c(=O)c2[nH]cnc2n(-c2ccccc2)c1=O [Compound 32, 3-Phenyl-1-propoxymethylxanthine]	90%
COCn1c(=O)c2[nH]cnc2n(C)c1=O [Compound 1, 1-Methoxymethyl-3-methylxanthine]	80%
CCCCOCn1c(=O)c2[nH]cnc2n(CC)c1=O [Compound 41]	40%
CCn1c(=O)n(COCCOC)c(=O)c2[nH]cnc21 [Compound 54]	30%
CCOCCn1c(=O)c2[nH]cnc2n(C)c1=O [Compound 21]	40%
CCC(C)OCn1c(=O)c2[nH]cnc2n(CC)c1=O (stereo not drawn) [Compound 52, 1-sec-Butoxymethyl-3-ethylxanthine]	30%
CCCOCn1c(=O)c2[nH]cnc2n(C)c1=O [Compound 26]	100%
CCCOCn1c(=O)c2[nH]cnc2n(CC)c1=O [Compound 27, 3-Ethyl-1-propoxymethylxanthine]	100%
CCCCOCn1c(=O)c2[nH]cnc2n(C)c1=O [Compound 40]	40%
CCCOCCn1c(=O)c2[nH]cnc2n(CCC)c1=O [Compound 37, 1-(2-Propoxyethyl)-3-propylxanthine]	80%
CCCCOCCn1c(=O)c2[nH]cnc2n(CC)c1=O [Compound 44]	30%
CCCOCn1c(=O)c2[nH]cnc2n(CC(C)C)c1=O [Compound 31, 3-Isobutyl-1-propoxymethylxanthine]	30%
CCCOCCn1c(=O)c2[nH]cnc2n(C2CC2)c1=O [Compound 39]	30%
CC(C)COCn1c(=O)c2[nH]cnc2n(C)c1=O [Compound 48, 1-Isobutoxymethyl-3-methylxanthine]	40%
CCCCn1c(=O)n(COC)c(=O)c2[nH]cnc21 [Compound 4]	30%
CCCOCn1c(=O)c2[nH]cnc2n(C(C)C)c1=O [Compound 29]	50%
CCCOCn1c(=O)c2[nH]cnc2n(CC2CC2)c1=O [Compound 34, 3-Cyclopropylmethyl-1-propoxymethylxanthine]	30%
